Measurements as given in US10882856B2 (BeiGene, Ltd., priority 2017, dated 2021).
Where a name gives a salt, the structure may show the parent alone.

Assays:
[1] = molecular target: T1, cellular TDO2 in HEK293-TDO2 cells (Homo sapiens, UniProt P48775); experiment: 293-TDO2 cell-based assay (Kyn colorimetric); details: 48 hours of incubation
T1 construct: expressed in transfected cells; host or cells: HEK293 (ATCC), stably transfected
Procedure, shortened: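 Kyn formed from L-Trp was read colorimetrically at 480 nm (TCA deproteinisation, then 2% 4-(dimethylamino)benzaldehyde). Compounds were added to 293-TDO2 cells 4 h post-seeding and left 48 h at 37° C. A four-parameter logistic model gave IC50 values.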

IDO1 [2] = molecular target: T2, IDO1 (Homo sapiens, UniProt P14902); experiment: IDO1 enzymatic assay; format: biochemical; parameters: His tag (N); made in house; host or cells: E. coli; details: read-out: Enzyme IC50 IDO1
Procedure, shortened: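 Recombinant N-terminally His-tagged IDO1 purified from E. coli (50 nM) was incubated with compound or DMSO and 1.3 mM D-tryptophan, 5 mM L-ascorbic acid, methylene blue and 0.4 mg/mL catalase. The buffer was 50 mM potassium phosphate pH 7.5 with 0.1% BSA, at 24 °C for 1.5 hours. N'-formylkynurenine formation was then read continuously at 321 nm for 1 hour, and activity was taken as the slope. IC50 was calculated from remaining enzyme activity across increasing compound concentrations.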

IDO1 [3] = molecular target: T2, IDO1; experiment: Hela cell-based IDO1 assay; details: Hela cells
Procedure, shortened: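 HeLa cells were plated at 8000 per well in 96-well plates containing phenol red-free DMEM with 10% FBS, and after 4 hours compound dilutions made in DMSO were added together with IFN-γ (final 100 ng/mL) and 0.4 mM L-Trp before 48 hours at 37 °C, 5% CO2. Supernatants were deproteinised with trichloroacetic acid, mixed with 2% 4-(dimethylamino)benzaldehyde and read at 480 nm for kynurenine. Four-parameter logistic fits were run in XLfit. Potency was derived from these fits.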

T2 sequence (P14902 whole entry): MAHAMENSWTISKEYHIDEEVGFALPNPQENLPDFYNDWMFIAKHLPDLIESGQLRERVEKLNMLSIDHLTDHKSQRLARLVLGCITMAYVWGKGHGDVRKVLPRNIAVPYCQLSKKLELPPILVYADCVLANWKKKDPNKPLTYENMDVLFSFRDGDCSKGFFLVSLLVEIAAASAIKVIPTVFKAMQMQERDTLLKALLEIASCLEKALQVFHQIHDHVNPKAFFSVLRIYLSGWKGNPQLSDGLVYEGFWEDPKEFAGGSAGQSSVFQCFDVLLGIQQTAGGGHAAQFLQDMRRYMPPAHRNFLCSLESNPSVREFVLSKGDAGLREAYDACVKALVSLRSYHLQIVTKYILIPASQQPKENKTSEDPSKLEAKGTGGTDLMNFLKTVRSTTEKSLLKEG
T1 sequence (P48775 whole entry): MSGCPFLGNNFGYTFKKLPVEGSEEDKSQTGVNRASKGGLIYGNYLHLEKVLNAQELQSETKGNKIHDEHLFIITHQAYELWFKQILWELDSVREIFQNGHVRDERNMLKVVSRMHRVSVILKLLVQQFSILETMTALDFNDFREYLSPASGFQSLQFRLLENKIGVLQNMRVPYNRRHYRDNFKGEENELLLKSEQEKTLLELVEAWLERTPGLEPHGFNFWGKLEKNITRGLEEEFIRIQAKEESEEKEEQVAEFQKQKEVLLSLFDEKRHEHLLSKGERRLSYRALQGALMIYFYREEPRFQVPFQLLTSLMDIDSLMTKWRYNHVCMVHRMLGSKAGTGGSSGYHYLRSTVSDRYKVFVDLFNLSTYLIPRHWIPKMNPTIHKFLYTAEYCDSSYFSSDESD

EC50 [1] | IC50 (IDO1 [2]) | EC50 (IDO1 [3]) | Structure (SMILES)
> 10000 nM | 29 nM | 30 nM | OC(c1c(C2CC2)ccn2cncc12)C1CCC(c2cccc3ncccc23)CC1 (stereo not drawn) [Example C126, (7-cyclopropylimidazo[1,5-a]pyridin-8-yl)(4-(quinolin-5-yl)cyclohexyl)methanol]
> 10000 nM | 37 nM | 118 nM | O=C(COc1ccc([C@H]2CC[C@H]([C@H](O)c3c(C4CC4)ccc4cncn34)CC2)cc1)c1ccccc1 [Example D152, 2-(4-((1S,4r)-4-((S)-(6-cyclopropylimidazo[1,5-a]pyridin-5-yl)(hydroxy)methyl)cyclohexyl)henoxy)-1-phenylethan-1-one]
> 10000 nM | > 10000 nM | 9490 nM | O[C@@H](c1c(C2CC2)ccc2cncn12)[C@H]1CC[C@H](c2ccc(F)c(F)c2F)CC1 (single isomer, unassigned) [Example D145b]
> 10000 nM | 38 nM | 167 nM | OC(c1c(C2CC2)ccc2cncn12)C1CCN(c2ccc(Cl)cc2)CC1 (stereo not drawn) [Example D174, (1-(4-chlorophenyl)piperidin-4-yl)(6-cyclopropylimidazo[1,5-a]pyridin-5-yl)methanol]
> 10000 nM | 32 nM | 40 nM | Oc1cccc(C2CCC(C(O)c3c(C4CC4)ccc4cncn34)CC2)c1 (stereo not drawn) [Example D142, 3-(4-((6-cyclopropylimidazo[1,5-a]pyridin-5-yl)(hydroxy)methyl)cyclohexyl)phenol]
> 10000 nM | 7800 nM | 6880 nM | OC(c1c(C2CC2)ccc2cncn12)[C@H]1CC[C@H](c2ccc(Cl)cc2)CC1 (single isomer, unassigned) [Example D103b]
> 10000 nM | 68 nM | 648 nM | OC(c1c(C2CC2)ccc2cncn12)C1CCC(c2cc3ccccc3s2)CC1 (stereo not drawn) [Example D154, (4-(benzo[b]thiophen-2-yl)cyclohexyl)(6-cyclopropylimidazo[1,5-a]pyridin-5-yl)methanol]
> 10000 nM | 32 nM | 267 nM | COc1ccc(N2CCC(C(O)c3c(C4CC4)ccn4cncc34)CC2)cc1 (stereo not drawn) [Example C142, (7-cyclopropylimidazo[1,5-a]pyridin-8-yl)(1-(4-methoxyphenyl)piperidin-4-yl)methanol]
> 10000 nM | 19 nM | 127 nM | O[C@H](c1c(C2CC2)ccc2cncn12)[C@H]1CC[C@H](c2ccc(Cl)c(F)c2)CC1 (single isomer, unassigned) [Example D128a]
> 10000 nM | 26 nM | 40 nM | OC(c1c(C2CC2)ccn2cncc12)C1CCN(c2ccc(F)c3cccnc23)CC1 (single isomer, unassigned) [Example C155b]
> 10000 nM | 2300 nM | > 10000 nM | OC(c1c(C2CC2)ccn2cncc12)C1CCN(c2ccncc2)CC1 (stereo not drawn) [Example C147, (7-cyclopropylimidazo[1,5-a]pyridin-8-yl)(1-(pyridin-4-yl)piperidin-4-yl)methanol]
> 10000 nM | 26 nM | 14 nM | CC(C)c1ccc2cncn2c1[C@@H](O)[C@H]1CC[C@H](c2ccc(F)cc2)CC1 (single isomer, unassigned) [Example D166a]
> 10000 nM | 15 nM | 128 nM | NC(=O)Nc1ccc([C@H]2CC[C@H]([C@H](O)c3c(C4CC4)ccc4cncn34)CC2)cc1 [Example D160, 1-(4-((1S,4r)-4-((S)-(6-cyclopropylimidazo[1,5-a]pyridin-5-yl)(hydroxy)methyl)cyclohexyl)phenyl)urea]
> 10000 nM | > 10000 nM | 4500 nM | COc1ccc([C@H]2CC[C@H]([C@@H](O)c3c(C4CC4)ccc4cncn34)CC2)c(Cl)c1 (single isomer, unassigned) [Example D147b]
> 10000 nM | 33 nM | 51 nM | OC(c1c(C2CC2)ccc2cncn12)C1CCC(c2ccnc3c(F)cccc23)CC1 (stereo not drawn) [Example D164, (6-cyclopropylimidazo[1,5-a]pyridin-5-yl)(4-(8-fluoroquinolin-4-yl)cyclohexyl)methanol]
> 10000 nM | 15 nM | 80 nM | O[C@H](c1c(C2CC2)ccc2cncn12)C1CCN(c2ccc(Cl)cc2)CC1 (single isomer, unassigned) [Example D174a]

EC50 [1] | IC50 (IDO1 [2]) | EC50 (IDO1 [3]) | Structure (SMILES)
> 10000 nM | 7500 nM | > 10000 nM | OC(c1c(C2CC2)ccn2cncc12)C1CCN(c2ccc(F)c3cccnc23)CC1 (single isomer, unassigned) [Example C155a]
> 10000 nM | > 10000 nM | > 10000 nM | O[C@@H](c1c(C2CC2)ccc2cncn12)[C@H]1CC[C@H](c2ccc3ncccc3c2)CC1 (single isomer, unassigned) [Example D157b]
> 10000 nM | 2300 nM | > 10000 nM | OC(c1c(C2CC2)ccc2cncn12)[C@H]1CC[C@H](c2ccc(C(F)(F)F)nc2)CC1 (single isomer, unassigned) [Example D107b]
> 10000 nM | > 10000 nM | 3900 nM | O[C@@H](c1c(C2CC2)ccc2cncn12)[C@H]1CC[C@H](c2ccc(OC(F)(F)F)cc2)CC1 (single isomer, unassigned) [Example D105b]
> 10000 nM | 15 nM | 33 nM | CC(=O)COc1ccc([C@H]2CC[C@H]([C@H](O)c3c(C4CC4)ccc4cncn34)CC2)cc1 [Example D151, 1-(4-((1 S,4r)-4-((S)-(6-cyclopropylimidazo[1,5-a]pyridin-5-yl)(hydroxy)methyl)cyclohexyl)phenoxy)propan-2-one]
> 10000 nM | 32 nM | 155 nM | OC(c1c(C2CC2)ccc2cncn12)C1CCC(c2ccc(OC3CCOCC3)cc2)CC1 (stereo not drawn) [Example D114, (6-cyclopropylimidazo[1,5-a]pyridin-5-yl)(4-(4-((tetrahydro-2H-pyran-4-yl)oxy)phenyl)cyclohexyl)methanol]
> 10000 nM | 90 nM | > 10000 nM | O=C(O)c1ccc(N2CCC(C(O)c3c(C4CC4)ccn4cncc34)CC2)cc1 (stereo not drawn) [Example C145, 4-(4-((7-cyclopropylimidazo[1,5-a]pyridin-8-yl)(hydroxy)methyl)piperidin-1-yl)benzoic acid]
> 10000 nM | 15 nM | 52 nM | O[C@H](c1c(C2CC2)ccc2cncn12)[C@H]1CC[C@H](c2ccc3ncccc3c2)CC1 (single isomer, unassigned) [Example D157a]
> 10000 nM | 21 nM | 113 nM | OC(c1c(C2CC2)ccc2cncn12)[C@H]1CC[C@H](c2cccc(F)c2F)CC1 (single isomer, unassigned) [Example D132a]
> 10000 nM | 33 nM | 44 nM | OC(c1c(C2CC2)ccc2cncn12)C1CCC(c2ccc(F)cc2)CC1 (stereo not drawn) [Example D104, (6-cyclopropylimidazo[1,5-a]pyridin-5-yl)(4-(4-fluorophenyl)cyclohexyl)methanol]
> 10000 nM | 44 nM | 546 nM | OC(c1c(C2CC2)ccc2cncn12)C1CCC(c2ccc(Br)cc2)CC1 (stereo not drawn) [Example D118, (4-(4-bromophenyl)cyclohexyl)(6-cyclopropylimidazo[1,5-a]pyridin-5-yl)methanol]
> 10000 nM | 16 nM | 83 nM | O[C@H](c1c(C2CC2)ccc2cncn12)[C@H]1CC[C@H](c2ccc(F)cc2F)CC1 (single isomer, unassigned) [Example D127a]
> 10000 nM | > 10000 nM | 6490 nM | O[C@@H](c1c(C2CC2)ccc2cncn12)[C@H]1CC[C@H](c2ccc(Cl)cc2F)CC1 [Example D131b, (R)-((1r,4R)-4-(4-chloro-2-fluorophenyl)cyclohexyl)(6-cyclopropylimidazo[1,5-a]pyridin-5-yl)methanol hydrochloride]
> 10000 nM | 30 nM | 68 nM | Oc1ccc(C2CCC(C(O)c3c(C4CC4)ccc4cncn34)CC2)cc1 (stereo not drawn) [Example D106, 4-(4-((6-cyclopropylimidazo[1,5-a]pyridin-5-yl)(hydroxy)methyl)cyclohexyl)phenol]
> 10000 nM | 1900 nM | 6050 nM | O[C@@H](c1c(C2CC2)ccn2cncc12)[C@H]1CC[C@H](c2cccc3ncccc32)CC1 (single isomer, unassigned) [Example C126b]
